Assay results reported in patent US20100240718A1, “NOVEL HETEROARYL-SUBSTITUTED ACETONE DERIVATIVE, SUITABLE FOR INHIBITING PHOSPHOLIPASE A2” (WESTFALISCHE WILHELMS UNIVERSITÄT MÜNSTER, priority 2007, published 2010).

Assays:
[1] = system: contact dermatitis induced by benzalkonium chloride; test: Anti-inflammatory properties in vivo, contact dermatitis induced by benzalkonium chloride (ear swelling); details: topical, 10 μl of a 1% solution in acetone (0.1 mg/ear), BALB/c mice, measured 1 to 72 hours
Protocol: The determination of the anti-inflammatory properties in vivo in the model of contact dermatitis induced by benzalkonium chloride was accomplished, if not stated otherwise hereinafter, according to the method published by E. Hyun et al., British Journal of Pharmacology, 2004, 143, S. 618-625.
BALB/c mice (Harlan Winkelmann GmbH, Borchen) were used as laboratory animals. A contact dermatitis was induced by introducing 10 μl per ear of a 5% benzalkonium chloride solution (Sigma) in olive oil/acetone (1:5) to the dorsal side of both ears for each of 8 lab animals per experimental group. This led to a swelling of the ears.
After 1 hour, 3 hours, 5 hours, 7 hours, 24 hours, 48 hours, and 72 hours, the ear thicknesses were measured using a digital caliper (Roth, Karlsruhe).

[2] = target: T1, cytosolic phospholipase A2 (Homo sapiens, UniProt P47712); test: Inhibition of cytosolic phospholipase A2 isolated from human thrombocytes (arachidonic acid release from SAPC, HPLC-UV); assay type: biochemical; details: for inhibition at 0.1 µM: read-out: inhibition of the activity of cytosolic phospholipase A2 compared to the control value
T1 construct: cytosolic phospholipase A2 obtained from human thrombocytes; from tissue; host or cells: human thrombocytes (platelets)
T1 sequence (P47712 1-749): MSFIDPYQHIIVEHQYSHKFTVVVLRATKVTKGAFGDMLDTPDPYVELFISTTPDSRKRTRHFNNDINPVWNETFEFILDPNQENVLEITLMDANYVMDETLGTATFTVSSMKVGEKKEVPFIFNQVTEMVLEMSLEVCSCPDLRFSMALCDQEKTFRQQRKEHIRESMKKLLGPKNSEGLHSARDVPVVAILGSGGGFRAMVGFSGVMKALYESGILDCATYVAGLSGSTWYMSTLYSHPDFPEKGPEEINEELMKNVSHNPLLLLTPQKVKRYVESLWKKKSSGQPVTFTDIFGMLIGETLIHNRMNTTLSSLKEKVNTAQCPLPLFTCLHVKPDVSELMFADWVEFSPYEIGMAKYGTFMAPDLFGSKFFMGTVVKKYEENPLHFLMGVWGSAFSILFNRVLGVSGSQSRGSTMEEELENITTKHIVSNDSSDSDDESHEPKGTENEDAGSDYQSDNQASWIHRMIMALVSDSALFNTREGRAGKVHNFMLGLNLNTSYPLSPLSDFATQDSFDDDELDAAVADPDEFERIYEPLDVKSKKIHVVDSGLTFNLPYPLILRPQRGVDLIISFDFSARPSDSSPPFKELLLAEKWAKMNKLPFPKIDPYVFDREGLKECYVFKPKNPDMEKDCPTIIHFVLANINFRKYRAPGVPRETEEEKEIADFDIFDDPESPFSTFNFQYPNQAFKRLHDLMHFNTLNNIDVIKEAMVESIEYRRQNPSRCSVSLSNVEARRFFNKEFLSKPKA
Protocol: The effectiveness of the inventive compounds is determinable by referring to the inhibition of the cytosolic phospholipase A2. For this purpose, cytosolic phospholipase A2 that had been isolated from human thrombocytes was used.
The IC50 value of the compounds for the inhibition of cytosolic phospholipase A2 corresponds to the concentration of the compounds that is necessary to reduce the activity of the enzyme by 50%.
The IC50 values were calculated from the values of cytosolic phospholipase A2 inhibition obtained from different concentrations with the help of the Probit model (see Hartke, Mutschler, DAB 9 Kommentar Band 1 S. 733-734, Wissenschaftliche Verlagsgesellschaft Stuttgart 1978).
The effectiveness of the inventive compounds was determined based on the inhibition of cytosolic phospholipase A2. The determination was accomplished, if not described otherwise hereinafter, as was described in Schmitt, M.; Lehr, M., “HPLC assay with UV spectrometric detection for the evaluation of inhibitors of cytosolic phospholipase A2” J. Pharm. Biomed. Anal. 2004, 35, 135-142.
Cytosolic phospholipase A2 that had been isolated from human thrombocytes was used as the enzyme source.
To produce a solution of covesicles from the substrate 1-stearoyl-2-arachidonoyl-sn-glycero-3-phosphocholine (SAPC) (Sigma) and 1,2-dioleoyl-sn-glycerol (DOG) (Sigma), corresponding amounts of the chloroform solution from SAPC (10 mg/ml) and DOG (5 mg/ml) were mixed and then the chloroform was steamed away in a stream of nitrogen. The residue was mixed with enough Tris buffer ([…], 1 mM dithiothreitol, 150 mM NaCl, 1 mM CaCl2, ph 8 at 20° C.) that a concentration for SAPC of 0.26 mM and a concentration for DOG of 0.13 mM were present. The mixture was homogenized for 10 minutes in an ultrasonic bath at 35° C. for the purpose of forming covesicles.
2 μl of the solution of the respective compound in DMSO (made from a 5 mM stock solution in DMSO) or, in the case of the control value, 2 μl of DMSO, were each mixed with 78 μl of the substrate mixture in Eppendorf tubes.
After 10 minutes of preincubation in a water bath at 37° C., 20 μl of the solution of cytosolic phospholipase A2 obtained from human thrombocytes were added to each of the […] and this mixture was incubated for another 60 minutes at 37° C. The incubation preparations contained 0.20 mM SAPC and 0.10 mM DOG per 100 μl. After that, the enzyme reaction was stopped by adding 400 μl of a solution of acetronitrile/methanol/0.1 M aqueous EDTA-solution in ratios 16:15:1 (v/v/v), whereby this solution contained 3 μg/ml nordihydroguaiaretic acid (NDGA) (Sigma) as antioxidant and 1.55 μg/ml 4-undecyloxybenzoic acid as internal standard. Subsequently, the samples were placed in ice for 10 to 15 minutes and then stored at −20° C. until solid phase extraction.
The octadecyl solid phase extraction columns with a bed volume of 200 mg and a capacity of 3 ml (Baker) were initially washed with 6 ml methanol and then with 6 ml water. The samples were diluted with 2 ml 0.005 M aqueous NaOH and then introduced to the solid phase columns. […] The eluate was mixed with 600 μl water. 100 μl of this solution was injected into the HPLC apparatus (Waters, Waters 717plus Autosampler, Waters 515 pump, and Waters 2487 UV detector). Data analysis was accomplished using the software program Millennium. For the column, a Nucleosil 100-3 C18 column (125×3 mm) with a Nucleosil 100-3 C18 pre-column (20×3 mm) (CS-Chromatographie-Service, Langerwehe) was used. The flow rate was 0.4 ml/min; the detection wavelength was 200 nm. A mixture of acetonitrile/water/phosphoric acid (85%) in ratios 770:230:1 (v/v/v) was used for the flow medium. The chromatogram run time was 30 minutes. Before the next injection, the column was always equilibrated for 15 minutes.

[3] = Determining water solubility in phosphate buffered saline (pH 7.4), HPLC; assay type: physicochemical; details: phosphate buffered saline (PBS buffer), aqueous buffer, thermodynamic from solid; PBS buffer pH 7.4; range or bound stated jointly for the listed compounds
Protocol: The water solubility of the compounds was determined by administering aqueous phosphate buffer (pH 7.4) to each respective compound, and the dissolved amount was determined after shaking and centrifugation, as is described in example 12.
The determination of the water solubility of the compound was accomplished, if not hereinafter stated otherwise, with reference to the method published by Kim et al., J. Med. Chem. 2005, 48, 3621-3629.
The mixture was placed in an ultrasonic bath (Sonorex TK52, Bandelin) for 10 minutes and then shaken lightly in a shaking water bath (GFL 1083). Subsequently, the mixture was centrifuged for 10 minutes at 4000×g and room temperature. About 1 ml clear solution was taken from the supernatant. 200 μl of the clear solution were mixed with 250 μl acetonitrile (VWR) and 50 μl 0.1 M phosphoric acid. From this solution, a volume of between 5 μl and 100 μl was injected into an HPLC system (Waters, Waters 717plus Autos ampler, Waters 515 pump, and Waters 2487 UV detector)
For reference solution 1, 2 μl of a 5 mM solution of the respective compound in dimethyl sulfoxide (DMSO) were mixed with 198 μl PBS buffer, 250 μl acetonitrile, and 50 μl 0.1 M phosphoric acid. For reference solution 2, 2 μl of a 5 mM solution of the respective compound in DMSO were mixed with 398 μl PBS buffer, 500 μl acetonitrile, and 100 μl 0.1 M phosphoric acid.
C18 Aqua®-columns from the company Phenomenex (Aqua®, RP18, 75×4.6 mm, 3 μm) were used as the stationary phase.
were determined under corresponding conditions.

Row | SMILES | increase in ear thickness compared to the negative control [1] | inhibition at 0.1 µM [2] [%] | solubility [3] [µg/mL] | IC50 [2] [nM]
1 | CCCCCCCCc1ccc(OCC(=O)Cn2cc(C(=O)CCCCC(=O)O)c3cc(C(=O)O)ccc32)cc1 [formula (3), 3-(5-carboxypentanoyl)-1-[3-(4-octylphenoxy)-2-oxopropyl]indole-5-carboxylic acid] | significantly decreased increase in ear thickness |  |  | 
2 | CCCCCCCCc1ccc(OCC(=O)Cn2cc(C(=O)CCCC(=O)O)c3cc(C(=O)O)ccc32)cc1 [formula (2), 3-(4-carboxybutanoyl)-1-[3-(4-octylphenoxy)-2-oxopropyl]indole-5-carboxylic acid] |  | 30 to 97 |  | 
3 | O=C(O)CCC(=O)c1cn(CC(=O)COc2ccc(Oc3ccc(C(F)(F)F)cc3)cc2)c2ccc(C(=O)O)cc12 [formula (4), 3-(3-carboxypropanoyl)-1-{2-oxo-3-[4-(4-trifluormethylphenoxy)phenoxy]propyl}indole-5-carboxylic acid] |  | 30 to 97 | 190 to 410 | 190
4 | CCCCCCCCc1ccc(OCC(=O)Cn2cc(C(C)=O)c3cc(C(=O)O)ccc32)cc1 [formula (10), reference compound] |  |  | < 1 | 
5 | CCCCCCCCc1ccc(OCC(=O)Cn2cc(C(=O)OC)c3cc(C(=O)O)ccc32)cc1 [formula (11), reference compound] |  |  | < 1 | 
6 | CCCCCCCCc1ccc(OCC(=O)Cn2cc(C(=O)C(F)(F)F)c3cc(C(=O)O)ccc32)cc1 [formula (6), 1-[3-(4-octylphenoxy)-2-oxopropyl]-3-(2,2,2-trifluoracetyl)indole-5-carboxylic acid] |  | 30 to 97 |  | 
7 | COC(=O)CCC(=O)c1cn(CC(=O)COc2ccc(Oc3ccc(C(F)(F)F)cc3)cc2)c2ccc(C(=O)O)cc12 [formula (5), 3-(3-methoxycarbonylpropanoyl)-1-{2-oxo-3-[4-(4-trifluormethylphenoxy)phenoxy]propyl}indole-5-carboxylic acid] |  | 30 to 97 | 15 to 35 | 22
